Laboratory results taken from patent publication US20140106387A1, “METHOD FOR CONTROLLING NAD(P)/NAD(P)H RATIO BY OXIDOREDUCTASE” (MD BIOALPHA CO., LTD., priority 2006, published 2014).

What was measured:
NQO1 = assay: NAD(P)H recycling assay (decrease of NAD(P)H by NQO1-activating candidate compounds); assay type: biochemical; details: for Residual amount of NAD(P)H(%): relative amount of NAD(P)H, amount in the absence of the NQO1 activator taken to be 100; for decrease of NAD(P)H and consequent body weight reduction: summary of Table 1 in words
Protocol: (10) NAD(P)H Recycling Assay
An NADH recycling assay was carried out using the above-extracted S9 supernatant or human recombinant NQO1 (hrNQO1). 20 μg of the S9 supernatant or 0.5 unit of hrNQO1 in conjunction with 200 μM NAD(P)H were added to a 25 mM Tris/HCl (pH 7.4) solution containing 0.2 mg/mL bovine serum albumin. The enzymatic reaction was initiated with addition of a […] compound and absorbance changes were monitored and recorded at 340 nm for 10 min.
(§1) For a variety of NQO1-activating candidate compounds as listed in Table 1 below, a decrease of NAD(P)H was measured based on the aforesaid experimental method (disclosed in Section 10 hereinbefore: NADH recycling assay). In addition, according to the experimental method given in Example 23, the body weight of ob/ob mice after four weeks was measured.
(§2) In this connection, the decreasing degree of NAD(P)H was expressed as a relative amount of NAD(P)H measured upon administration of the NQO1-activating candidate compound, by taking the amount of NAD(P)H in the absence of the NQO1 activator NAD(P)H to be 100. In addition, the degree of the body weight loss was expressed as a percentage of the body weight of ob/ob mice with administration of the NQO1-activating candidate compound, relative to the body weight of ob/ob mice without administration of the NQO1-activating candidate compound (control) after four weeks.

[1] = body weight and dietary intake of leptin receptor-deficient (ob/ob) mice; assay type: in vivo, mouse; details: for Weight reduction In ob/ob mice (4 wk): after four weeks, relative to ob/ob mice without administration (control), method of Example 23
Protocol: All experimental animal procedures were performed according to a guideline of Institutional Animal Care and Use Committee, Chungnam National University School of Medicine. OLETF rats were purchased from Otsuka Research Institute. Male ob/ob and C57BL/6 mice were purchased from Jackson Laboratory. Animals were housed in a breeding room maintained at a constant temperature of […] and a 12 h/12 h light/dark (L/D) cycle. 4-week-old C57BL/6 male mice were fed ad libitum high fat diet (HFD, 24% (w/w) and 45% calories as fat, Research Diets Inc., New Brunswick, N.J. 08901, US) for 7 weeks. Mouse groups were divided into an untreated group, a vehicle-treated group (calcium silicate), a pair-fed group and a candidate compound-treated group (calcium silicate-coated […] nanoparticles). Body weight and dietary intake of animals were daily measured. Upon completion of experiments, some mice of each group were anesthetized and received MRI examinations. The remaining mice of the groups were anatomized and tissue weight thereof was measured. Epidydimal fat, liver, soleus muscle and extensor digitorum longus (EDL) were prepared, and immunohistochemical, oil-red 0 and pH-sensitive ATPase staining were performed for analysis.
FIGS. 46 and 47 show changes in dietary intake/body weight and changes in body weight for 56 days, according to daily administration of pyrano-1,2-naphthoquinone into leptin receptor-deficient (ob/ob) mice at a dose of 200 mg/kg via an oral route.
This Example was intended to examine effects of varying in vivo NAD(P)^+/NAD(P)H ratio by arbitrary external supply of NAD(P)^+, a method capable of elevating the NAD(P)^+/NAD(P)H ratio in vivo. 100 mg/kg of NAD^+ was administered daily to leptin receptor-deficient (ob/ob) mice via an intraperitoneal (i.p.) route. A control mice group was given i.p. administration of physiological saline at the same dose. Changes in dietary intake/body weight (A) and changes in body weight (B) were measured for 30 days.
200 mg/kg of DMF was daily administered to leptin receptor-deficient (ob/ob) mice via an oral route. A control group received daily i.p. administration of physiological saline at the same dose. Changes in body weight (A) and changes in dietary intake (B) were measured for 30 days. It was confirmed that dietary intake of the treatment group was regulated to a 60 to 70% level of the control group.
as §1, §2

AMPK = AMPK phosphorylation in HEK293 cells (Western blot); assay type: cell-based, human; details: HEK293 cells, AICAR 2 mM, 30 min
Protocol: Cells were lysed in SDS sample buffer (62.5 mM Tris HCl (pH 6.8), 6% (w/v) SDS, 30% glycerol, 125 mM DTT, and 0.03% (w/v) bromophenol blue). The total cell lysates were boiled at a temperature of 100° C. for 5 min and electrophoresed on a sodium dodecyl sulfate-polyacrylamide gel, and proteins were transferred on a nitrocellulose membrane. The membrane was reacted in TBS (5% (w/v) milk and 0.1% Tween 20) for 1 hour, and then reacted with primary antibodies for 2 hours. Next, the membrane was developed using HRP-conjugated secondary antibodies (Phototope-HRP Western Blot Detection Kit, New England Biolabs, Beverly, Mass.).
In order to investigate the importance of an NQO1 protein in phosphorylation of AMP kinase, HepG2, MCF-7 and HEK293 cells were seeded onto 60 mm plates at a density of 1×10^6 cells/plate. After growing the cells for 24 hours, the culture medium was replaced with a serum-free medium, and cells were treated with pyrano-1,2-naphthoquinone (10 μM) for 30 min, respectively, in combination with a control group (DMSO). Cells were lysed in RIPA buffer and amounts of all proteins were quantified using a spectrophotometer, and 50 μg of the protein was subjected to electrophoresis. AMP kinase phosphorylation was examined using Anti-AMPK and Anti-pT172-AMPK, whereas the NQO1 protein was assayed using Anti-NQO1. From the fact that AMP kinase phosphorylation by pyran-1,2-naphthoquinone (10 μM) was not observed in HEK293 cells, it can be seen that the NQO1 protein is crucial for phosphorylation of AMP kinase.
In order to examine that an activity of NQO1 is important for the phosphorylation of AMP kinase, HEK293 cells were seeded onto a 6-well plate at a density of 1×10^5 cells/well, cultured for 24 hours, and transfected with pSG5-HA-NQO1 (500 ng) and pSG5-HA-NOQ1-C609T (500 ng) plasmids. After 24 hours, the culture medium was replaced with a serum-free medium, and the cells were treated with pyrano-1,2-naphthoquinone (10 μM) and AICAR (2 mM) for 30 min, in combination with a control (DMSO). AMP kinase phosphorylation were assayed using Anti-AMPK and Anti-pT172-AMPK, whereas transfected NQO1 was assayed using Anti-HA.
In addition, AMPK phosphorylation/activation was not promoted in HEK293 cells, except for HEK293 cells transfected with wild type NQO1.

HepG2 cells [2] = assay: calcium influx (Fluo-4) in HepG2 cells; assay type: cell-based, human; details: dicoumarol 5 μM pretreated 30 min
Protocol: Cells were grown on a coverslip in a culture medium for 24 hours, maintained in an RPMI 1640 serum-free medium for 1 hour, and pretreated with a calcium indicator Fluo-4 (5 μM) for 30 min. After pretreatment, the coverslip was mounted on a slide glass. Changes in an intracellular calcium concentration were observed using a fluorescence microscope (Carl Zeiss) for 30 sec, and cells were treated with a candidate compound (e.g. pyran-1,2-naphthoquinone) simultaneously with consecutive imaging of calcium changes using a fluorescence microscope (Carl Zeiss) for 2 sec. […] Changes in the intracellular calcium concentration were observed using a fluorescence microscope (Carl Zeiss) for 30 sec, and cells were treated with pyre-1,2-naphthoquinone (10 μM), followed by continuous shooting of calcium changes using a fluorescence microscope for 2 sec. Using an LSM Image Browser program (Carl Zeiss), 300 images taken for 10 min every 2 seconds were sorted and ordered in a time sequence and plotted on a graph.
For determination of the inner mitochondrial membrane potential (ΔΨm), 20 nM of TMRE (tetramethylrhodamine ethyl ester) as a fluorescent indicator was continuously applied to be loaded on cells. In order to monitor mitochondrial Ca^2+, cells on glass coverslips were loaded with 10 μM Rhod-2 AM via cold loading/warm incubation. In order to monitor cytosolic Ca^2+, cells were co-loaded with 10 μM Fluo-4 AM at 37′C for 30 min. […] Images for TMRE (red fluorescence), Rhod-2 (red fluorescence) and Fluo-4 (green fluorescence) were obtained using an inverted Zeiss 510META laser-scanning confocal microscope equipped with ×63 numerical aperture, 1.4 oil-immersion planapochromat lens. Green fluorescence and red fluorescence were illuminated with light of 488 nm and 543 nm. […]
Cells were cultured for 24 hours and then pre-treated with Fluo-4 for 30 min. Cells immobilized on a coverslip were transferred to a slide glass and treated with pyrano-1,2-naphthoquinone (10 μM), and at the same time images were taken every 2 seconds for 10 min using a fluorescence microscope.

HepG2 cells [3] = assay: mitochondrial membrane potential (TMRE fluorescence) in HepG2 cells; assay type: cell-based, human; details: dicoumarol-treated cells
Protocol: For determination of the inner mitochondrial membrane potential (ΔΨm), 20 nM of TMRE (tetramethylrhodamine ethyl ester) as a fluorescent indicator was continuously applied to be loaded on cells. In order to monitor mitochondrial Ca^2+, cells on glass coverslips were loaded with 10 μM Rhod-2 AM via cold loading/warm incubation. In order to monitor cytosolic Ca^2+, cells were co-loaded with 10 μM Fluo-4 AM at 37′C for 30 min. The cells were washed twice with a KB solution, and mounted in a perfusion chamber. Fluorescent imaging was taken using a confocal laser scanning microscope (LSM-510 META, Carl Zeiss) at a magnification of ×200 and ×400, in conjunction with appropriate laser lines and a filter set. Image analysis was carried out using LSM-510 META software (Zeiss). Images for TMRE (red fluorescence), Rhod-2 (red fluorescence) and Fluo-4 (green fluorescence) were obtained using an inverted Zeiss 510META laser-scanning confocal microscope equipped with ×63 numerical aperture, 1.4 oil-immersion planapochromat lens. Green fluorescence and red fluorescence were illuminated with light of 488 nm and 543 nm. Incident light was passed through a 545 nm dichroic mirror and observed via a 500 to 530 nm band-pass (green) filter and a 560 nm long-pass (red) barrier filter.
However, such effects were not observed in HEK293 cells. […]

Structure (SMILES) | Residual amount of NAD(P)H(%) (NQO1) | decrease of NAD(P)H and consequent body weight reduction (NQO1) | Weight reduction In ob/ob mice (4 wk) [1] | further results
CC1C2=C(OC1(C)C)c1ccccc1C(=O)C2=O (centres unmarked) [2,2,3-Trimethyl-2,3-dihydro-naphtho[1,2-b]furan-4,5-dione] | 52.75 ± 1.88 | significant decrease of NAD(P)H | −27.9 ± 0.5% | –
CC1(C)CC2=C(O1)c1ccccc1C(=O)C2=O [2,2-Dimethyl-2,3-dihydro-naphtho[1,2-b]furan-4,5-dione] | 45.9 ± 3.90 | significant decrease of NAD(P)H | −27.8 ± 8.1% | –
CC1(C)CCC2=C(O1)C(=O)c1ccccc1C2=O [2,2-Dmethyl-3,4-dihydro-2H-benzo[g]chromene-5,10-dione] | 95 ± 4.5 | – | 1.3 ± 2.8% | –
CC1OC2=C(C(=O)C(=O)c3ccccc32)C1(C)C (centres unmarked) [2,3,3-Trimethyl-2,3-dihydro-naphtho[1,2-b]furan-4,5-dione] | 64.39 ± 1.69 | significant decrease of NAD(P)H | −46.2 ± 11.1% | –
CC(C)=C/C(C)=C/C1(C)OC2=C(CC1C)C(=O)C(=O)c1ccccc12 (centres unmarked) [2-(2,4-Dimethyl-penta-1,3-dienyl)-2,3-dimethyl-3,4-dihydro-2H-benzo[h]chromene-5,6-dione] | 98.06 ± 5.14 | – | −2.2 ± 0.07% | –
CC1CC2=C(O1)c1ccccc1C(=O)C2=O (centres unmarked) [2-Methyl-2,3-dihydro-naphtho[1,2-b]furan-4,5-dione] | 49.73 ± 1.98 | significant decrease of NAD(P)H | −39.5 ± 3.1% | –
CC(C)=CC1(C)CCC2=C(O1)C(=O)c1ccccc1C2=O (centres unmarked) [2-Methyl-2-(2-methyl-propenyl)-3,4-dihydro-2H-benzo[g]Chromene-5,10-dione] | 99.74 ± 2.69 | – | −0.7 ± 2.0% | –
CC(C)C1=CC2OC3=C(CC2(C)CC1)C(=O)c1ccccc1C3=O (centres unmarked) [3-Isoprophy-12a-methyl-2,4a,12,12a-tetradro-7H-benzo[b]xanthene-6,11-dione] | 99.45 ± 3.56 | – | 0.3 ± 2.8% | –
CC(C)C1=CC2OC3=C(CC2(C)CC1)C(=O)C(=O)c1ccccc13 (centres unmarked) [10-Isopropyl-7a-methyl-7a,8,9,11a-tetrahydro-7H-benzo[c]xanthene-5,6-dione] | 77.55 ± 4.19 | significant decrease of NAD(P)H | −6.7 ± 2.1% | –
NC(=O)c1ncn([C@@H]2O[C@H](CO)[C@@H](O)[C@H]2O)c1N [AICAR, 5-aminoimidazole-4-carboxamide-1-beta-D-ribofuranoside, reference compound] | – | – | – | phosphorylation of AMPK (AMPK): increase in phosphorylation of AMPK
COC1=C(OC)C(=O)C(C/C=C(\C)CC/C=C(\C)CC/C=C(\C)CC/C=C(\C)CC/C=C(\C)CC/C=C(\C)CC/C=C(\C)CC/C=C(\C)CC/C=C(\C)CCC=C(C)C)=C(C)C1=O [CoQ10, reference compound] | 101.69 ± 1.32 | – | 2.3 ± 3.5− % | –
CC1=CC(=O)c2ccccc2C1=O [Menadione, 2-Methyl-1,4-naphthoquinone, reference compound] | 85.65 ± 2.58 | – | −2.7 ± 2.0% | –
NC(=O)c1ccc[n+]([C@@H]2O[C@H](COP(=O)([O-])OP(=O)(O)OC[C@H]3O[C@@H](n4cnc5c(N)ncnc54)[C@H](O)[C@@H]3O)[C@@H](O)[C@H]2O)c1 [NAD^+] | – | – | – | body weight ([1]; NAD+ 100 mg/kg daily i.p., 30 days): continuous weight loss for 30 days; dietary intake/body weight ([1]; NAD+ 100 mg/kg daily i.p., at around 10 days): notably decreased
O=c1oc2ccccc2c(O)c1Cc1c(O)c2ccccc2oc1=O [dicoumarol, reference compound] | – | – | – | effect on calcium influx by pyrano-1,2-naphthoquinone (HepG2 cells [2]): inhibited; effects of βL on ΔΨm in dicoumarol-treated cells (HepG2 cells [3]): did not exhibit such effects
